In patent US12173018B2, “Penicillin-binding protein inhibitors” (priority 2018, dated 2024):
Converted amounts (≈) assume the structure as drawn. Read-outs that look alike come from different tables or passages of the source.

How the values were obtained:
E. coli PBP3 = E. coli PBP3 (Escherichia coli (strain K12), UniProt P0AD68); assay: E. coli PBP3 Bocillin-FL fluorescence polarization competition binding assay
Summary of the method: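 FP competition: 1.5 μM PBP, 0.1 μM Bocillin-FL, cpd 0–1000 μM; 50 mM Hepes pH 8.0/300 mM NaCl/5% glycerol. Read 490/520 nm immediately after Bocillin-FL addition, 60 min. EC50 = cpd conc. lowering probe binding.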

E. coli ATCC 25922 = assay: Broth microdilution MIC, E. coli ATCC 25922; format: cell-based; conditions: Escherichia coli, ATCC25922; E. coli ATCC 25922, broth microdilution; read-out: MIC E. coli 25922
Summary of the method: (§1)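 Colonies from Mueller Hinton II agar were grown 3-5 hours at 37° C in cation-supplemented broth, adjusted by OD600, then added to 2-fold compound dilutions at 5×10^5 CFU/mL. After 16-20 hours at 37° C, MICs were scored visually.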

E. coli AG100 = assay: Broth microdilution MIC, E. coli AG100 (wild-type parent); format: cell-based; conditions: Escherichia coli; wild-type parent E. coli AG100, broth microdilution; read-out: MIC E. coli AG100
Summary of the method: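 Broth microdilution in cation-supplemented Mueller-Hinton broth, 2-fold serial compound dilutions, inoculum 5×10^5 CFU/mL from 3-5 h log culture.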

E. coli 901C = assay: microbe, parasite or virus in culture; format: cell-based; conditions: Escherichia coli; hyper-permeable E. coli 901C, broth microdilution; read-out: MIC E. coli 901C
Summary of the method: as §1

E. coli AG100A = assay: microbe, parasite or virus in culture; format: cell-based; conditions: Escherichia coli, read-out: MIC E. coli AG100A
Summary of the method: as §1

E. coli D22 = assay: microbe, parasite or virus in culture; format: cell-based; conditions: Escherichia coli; hyper-permeable E. coli D22, broth microdilution; read-out: MIC E. coli D22
Summary of the method: as §1

K. pneumoniae SI-117 = assay: microbe, parasite or virus in culture; format: cell-based; conditions: Klebsiella pneumoniae, SI117, read-out: MIC K. pneumoniae SI-117
Summary of the method: as §1

K. pneumoniae UMM = assay: microbe, parasite or virus in culture; format: cell-based; conditions: Klebsiella pneumoniae; K. pneumoniae UMM producing SHV-5 and KPC-2; read-out: MIC K. pneumoniae UMM
Summary of the method: as §1

K. pneumoniae 848844 = assay: microbe, parasite or virus in culture; format: cell-based, Klebsiella pneumoniae; conditions: Klebsiella pneumoniae; K. pneumoniae 848844 producing SHV-11 and KPC-2; read-out: MIC K. pneumoniae 848844
Summary of the method: as §1

[1] = system: N. gonorrhoeae ATCC 49226; assay: Liquid broth MIC, N. gonorrhoeae ATCC 49226; format: cell-based; conditions: Neisseria gonorrhoeae, ATCC49226; N. gonorrhoeae ATCC 49226, liquid broth; read-out: Minimum Inhibitory Concentration, N. gonorrhoeae ATCC 49226
Protocol: (§2) Additional antibacterial testing of the series was performed in wild-type reference strains of N. gonorrhoeae (ATCC 49226, FA1090, WHO F and FA19). Liquid broth-based assays were used for antibacterial testing of PBP inhibitors in Neisseria gonorrhoeae. Briefly, cryo-preserved bacterial cultures of clinical strains are streaked for isolation on GC Base agar (BD #228950 at 36 g/L autoclaved at 121° C. for 20 minutes to sterilize) with 1% Kellogg's supplement (40 g glucose, 0.5 g glutamine, 0.05 g ferric nitrate and 2 mg cocarboxylase per 100 mL deionized water filter sterilized through 0.2 μm syringe filters). Following incubation at 36° C. and 5% CO2 to allow growth of colonies, strains are aseptically sub-cultured from original agar plate onto 3 agar plates per strain 24 hours before inoculum preparation. 2-fold serial dilutions of test compounds are conducted in a 96 well plate with a final volume of 150 μL per well at 4/3-fold the final desired concentration. For preparation of assay inoculum, a direct suspension is prepared by aseptically swabbing all colonies from sub-cultured agar plates into culture tubes containing 2 mL of fresh GC broth with […]. After the dilution plates are set up, direct suspensions are then diluted in a cuvette containing GC broth (15 g proteose peptone 43, 1 g corn starch, 4 g dipotassium phosphate, 1 g monopotassium phosphate and 5 g sodium chloride per liter of deionized water are mixed on a stir plate for 20 minutes, pH adjusted to 7.2+/−0.2 pH units with 1 N HCl, centrifuged at 10,000×g for 20 minutes to pellet undissolved corn starch and then autoclaved at 121° C. for 20 minutes to sterilize) and the optical density is measured at 600 nm. Inocula are diluted such that 50 μL of this culture in […] results in a starting bacterial concentration of 5×10^5 CFU/mL when added to the dilution plates. The plates are incubated 40-42 hours at 36° C. and 5% CO2. The MIC is read visually as the lowest concentration well with no bacterial growth.

N. gonorrhoeae FA1090 = assay: Liquid broth MIC, N. gonorrhoeae FA1090; format: cell-based; conditions: Neisseria gonorrhoeae; N. gonorrhoeae FA1090, liquid broth; read-out: Minimum Inhibitory Concentration, N. gonorrhoeae FA1090
Protocol: as §2

N. gonorrhoeae WHO F = assay: Liquid broth MIC, N. gonorrhoeae WHO F; format: cell-based; conditions: Neisseria gonorrhoeae; N. gonorrhoeae WHO F, liquid broth; read-out: Minimum Inhibitory Concentration, N. gonorrhoeae WHO F
Protocol: as §2

N. gonorrhoeae FA19 = assay: Liquid broth MIC, N. gonorrhoeae FA19; format: cell-based; conditions: Neisseria gonorrhoeae; N. gonorrhoeae FA19, liquid broth; read-out: Minimum Inhibitory Concentration, N. gonorrhoeae FA19
Protocol: as §2

[2] = fluorescence polarization competition binding with Bocillin-FL, read-out: E. coli K12 PBP3 Potency

Sequence of E. coli PBP3 (P0AD68 whole entry): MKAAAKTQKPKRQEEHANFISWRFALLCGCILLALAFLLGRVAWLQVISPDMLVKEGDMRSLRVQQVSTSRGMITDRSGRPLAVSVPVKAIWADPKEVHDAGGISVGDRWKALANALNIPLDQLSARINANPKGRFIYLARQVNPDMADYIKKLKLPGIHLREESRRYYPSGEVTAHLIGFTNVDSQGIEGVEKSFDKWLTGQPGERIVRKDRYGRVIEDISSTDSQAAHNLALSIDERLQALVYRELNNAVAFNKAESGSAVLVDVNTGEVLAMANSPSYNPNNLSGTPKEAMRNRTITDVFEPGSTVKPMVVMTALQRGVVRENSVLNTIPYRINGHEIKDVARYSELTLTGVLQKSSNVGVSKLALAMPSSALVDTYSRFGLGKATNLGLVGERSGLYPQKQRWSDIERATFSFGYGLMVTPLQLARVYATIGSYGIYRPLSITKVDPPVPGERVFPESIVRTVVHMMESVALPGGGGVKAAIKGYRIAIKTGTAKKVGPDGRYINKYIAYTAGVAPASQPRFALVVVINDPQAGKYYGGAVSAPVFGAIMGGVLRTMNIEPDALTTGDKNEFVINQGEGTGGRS

SMILES	EC50 (E. coli PBP3; [2]) [µM]	MIC (E. coli ATCC 25922) [µg/mL]	MIC (E. coli AG100) [µg/mL]	MIC (E. coli 901C) [µg/mL]	MIC (E. coli AG100A) [µg/mL]	MIC (E. coli D22) [µg/mL]	MIC (K. pneumoniae SI-117) [µg/mL]	MIC (K. pneumoniae UMM) [µg/mL]	MIC (K. pneumoniae 848844) [µg/mL]	MIC [1] [µg/mL]	MIC (N. gonorrhoeae FA1090) [µg/mL]	MIC (N. gonorrhoeae WHO F) [µg/mL]	MIC (N. gonorrhoeae FA19) [µg/mL]	EC50 (E. coli PBP3) [µM]
O=C(O)c1cccc2c1OB(O)[C@@H](NC(=O)C(NC(=O)N1CCN(CCF)C(=O)C1=O)c1ncc(O)cc1F)C2 (stereo partly drawn) [Example 179, (3R)-3-(2-(3-fluoro-5-hydroxypyridin-2-yl)-2-(4-(2-fluoroethyl)-2,3-dioxopiperazine-1-carboxamido)acetamido)-2-hydroxy-3,4-dihydro-2H-benzo[e][1,2]oxaborinine-8-carboxylic acid]	< 30	8 to 16	8 to 16	< 0.25	0.5 to 1	0.5 to 1	8 to 16	2 to 4	32 to 64	0.25 to 0.5 (≈ 0.445 to 0.891 µM)	< 0.125	< 0.125	4 to 8 (≈ 7.13 to 14.3 µM)	
CCN1CCN(C(=O)NC(C(=O)N[C@H]2Cc3cccc(C(=O)O)c3OB2O)c2ccc(C(N)=O)cc2)C(=O)C1=O (stereo partly drawn) [Example 186, (3R)-3-(2-(4-carbamoylphenyl)-2-(4-ethyl-2,3-dioxopiperazine-1-carboxamido)acetamido)-2-hydroxy-3,4-dihydro-2H-benzo[e][1,2]oxaborinine-8-carboxylic acid]		32 to 64	8 to 16	< 0.25	2 to 4	0.5 to 1	> 128	32 to 64	> 128	1 to 2 (≈ 1.81 to 3.63 µM)	< 0.125	< 0.125	1 to 2 (≈ 1.81 to 3.63 µM)	30 to 500
CCN1C[C@H](C)N(C(=O)NC(C(=O)N[C@H]2Cc3cccc(C(=O)O)c3OB2O)c2ncc(O)cc2F)C(=O)C1=O (stereo partly drawn) [Example 192, (3R)-3-(2-((S)-4-ethyl-6-methyl-2,3-dioxopiperazine-1-carboxamido)-2-(3-fluoro-5-hydroxypyridin-2-yl)acetamido)-2-hydroxy-3,4-dihydro-2H-benzo[e][1,2]oxaborinine-8-carboxylic acid]	< 30	2 to 4	8 to 16	< 0.25	0.5 to 1	0.5 to 1	32 to 64	8 to 16	32 to 64	1 to 2 (≈ 1.79 to 3.59 µM)	< 0.125	< 0.125	1 to 2 (≈ 1.79 to 3.59 µM)	
NC(=O)c1ccc(C(NC(=O)N2CCN(CCF)C(=O)C2=O)C(=O)N[C@H]2Cc3cccc(C(=O)O)c3OB2O)cc1 (stereo partly drawn) [Example 187, (3R)-3-(2-(4-carbamoylphenyl)-2-(4-(2-fluoroethyl)-2,3-dioxopiperazine-1-carboxamido)acetamido)-2-hydroxy-3,4-dihydro-2H-benzo[e][1,2]oxaborinine-8-carboxylic acid]		32 to 64	8 to 16	< 0.25	2 to 4	0.5 to 1	> 128	32 to 64	> 128	0.25 to 0.5 (≈ 0.439 to 0.878 µM)	< 0.125	< 0.125	0.25 to 0.5 (≈ 0.439 to 0.878 µM)	30 to 500
CCN1CCN(C(=O)N[C@H](C(=O)N[C@H]2Cc3ccc(F)c(C(=O)O)c3OB2O)c2ccc(O)c(F)c2)C(=O)C1=O [Example 160, (R)-3-((S)-2-(4-ethyl-2,3-dioxopiperazine-1-carboxamido)-2-(3-fluoro-4-hydroxyphenyl)acetamido)-7-fluoro-2-hydroxy-3,4-dihydro-2H-benzo[e][1,2]oxaborinine-8-carboxylic acid]		> 128	> 128	2 to 4	> 128	32 to 64	> 128	> 128	> 128	16 to 32 (≈ 28.6 to 57.1 µM)	0.25 to 0.5 (≈ 0.446 to 0.892 µM)	0.25 to 0.5 (≈ 0.446 to 0.892 µM)	16 to 32 (≈ 28.6 to 57.1 µM)	30 to 500
O=C(O)c1cccc2c1OB(O)[C@@H](NC(=O)C(NC(=O)N1C[C@@H]3CCCN3C(=O)C1=O)c1ncc(O)cc1F)C2 (stereo partly drawn) [Example 223, (3R)-3-(2-((S)-3,4-dioxooctahydropyrrolo[1,2-a]pyrazine-2-carboxamido)-2-(3-fluoro-5-hydroxypyridin-2-yl)acetamido)-2-hydroxy-3,4-dihydro-2H-benzo[e][1,2]oxaborinine-8-carboxylic acid]		> 128	> 128	8 to 16	32 to 64	32 to 64	> 128	> 128	> 128	> 64	1 to 2 (≈ 1.8 to 3.6 µM)	1 to 2 (≈ 1.8 to 3.6 µM)	> 64	30 to 500
CCN1CCN(C(=O)NC(C(=O)N[C@H]2Cc3cccc(C(=O)O)c3OB2O)c2ncc(N)cc2F)C(=O)C1=O (stereo partly drawn) [Example 214, (3R)-3-(2-(5-amino-3-fluoropyridin-2-yl)-2-(4-ethyl-2,3-dioxopiperazine-1-carboxamido)acetamido)-2-hydroxy-3,4-dihydro-2H-benzo[e][1,2]oxaborinine-8-carboxylic acid]		8 to 16	32 to 64	0.5 to 1	2 to 4	2 to 4	32 to 64	32 to 64	32 to 64	4 to 8 (≈ 7.38 to 14.8 µM)	< 0.125	< 0.125	4 to 8 (≈ 7.38 to 14.8 µM)	30 to 500
CCN1CCN(C(=O)NC(C(=O)N[C@H]2Cc3cccc(C(=O)O)c3OB2O)c2ncc(O)cn2)C(=O)C1=O (stereo partly drawn) [Example 202, (3R)-3-(2-(4-ethyl-2,3-dioxopiperazine-1-carboxamido)-2-(5-hydroxypyrimidin-2-yl)acetamido)-2-hydroxy-3,4-dihydro-2H-benzo[e][1,2]oxaborinine-8-carboxylic acid]		32 to 64	32 to 64	0.5 to 1	2 to 4	8 to 16	32 to 64	32 to 64	> 128	4 to 8 (≈ 7.6 to 15.2 µM)	0.25 to 0.5 (≈ 0.475 to 0.95 µM)	0.25 to 0.5 (≈ 0.475 to 0.95 µM)	4 to 8 (≈ 7.6 to 15.2 µM)	30 to 500
NS(=O)(=O)c1ccc(C(NC(=O)N2CCN(CCF)C(=O)C2=O)C(=O)N[C@H]2Cc3cccc(C(=O)O)c3OB2O)cc1F (stereo partly drawn) [Example 211, (3R)-3-(2-(3-fluoro-4-sulfamoylphenyl)-2-(4-(2-fluoroethyl)-2,3-dioxopiperazine-1-carboxamido)acetamido)-2-hydroxy-3,4-dihydro-2H-benzo[e][1,2]oxaborinine-8-carboxylic acid]		32 to 64	32 to 64	< 0.25	2 to 4	2 to 4	> 128	32 to 64	> 128	4 to 8 (≈ 6.42 to 12.8 µM)	0.25 to 0.5 (≈ 0.401 to 0.802 µM)	0.25 to 0.5 (≈ 0.401 to 0.802 µM)	4 to 8 (≈ 6.42 to 12.8 µM)	30 to 500
